One series concerns serum calcium. Briefly: Serum calcium in rats, repeat daily dosing 7 days (Example 13). The class given is in vivo, Sprague-Dawley rats. The settings on record: daily SC 7 days; SEQ ID NO: 77 20 nmol/kg, SEQ ID NO: 87 20 or 40 nmol/kg; returned to initial values after washout. The method, then: Female Sprague-Dawley rats were single or double-housed and randomly assigned to four groups (n=5-6 per group) as described in Table 20, and then weighed.
After the treatment ceased, the animals were monitored on days 9 and 11 (washout period).
Body weight and food intake were measured on days 0, 1, 3, 5 and 7. Ca was measured on days 0, 1, 2, 3, 4, 7, 9 and 11. Pi was determined on the same samples, except for days 9 and 11.

The test system of another series is serum phosphate. Briefly: Serum phosphate in parathyroidectomized rats, ten daily doses (Example 16). The class given is in vivo, Sprague-Dawley rats. The settings on record: for starting serum phosphate concentration: PTx rats, before first dose. The text has this:
Rats were randomly distributed among 5 groups and injected subcutaneously for ten consecutive days with either vehicle or SEQ ID NO; 87 (10, 25, 40 nmol/kg; n=8). Two separate vehicle treated groups of rats were studied. The first represented control rats surgically managed like the remaining rats, but their parathyroid gland was not removed (sham control). The second vehicle control group represented rats that were surgically managed in the same manner as the SEQ ID NO: 87 treated rats. Following surgery and one week prior to testing all the rats were placed on a defined diet at a specific calcium concentration.
Determination of phosphate levels was conducted with sampling at near-identical times to the serum calcium, differing only in the last days of the washout period. […] The starting phosphate level was 7.003 mg/dl, as compared to 11.317 mg/dl in the vehicle control group of the PTx rats. […] The difference between the two control groups was maintained through the course of the experiment. […] Efficacy was fully maintained through observation at Day 10, one day after the last administered dose. […] Twenty-five days after study initiation, all PTx-rats aligned as a group with increased phosphate, as compared to sham control rats.

Series [1] can be described thus: Pharmacokinetics of SEQ ID 87 in monkeys, single subcutaneous dose (Example 17). In kind it is in vivo, cynomolgus monkeys. To be noted: FIGS. 26A, 26B.
Method: A total of three monkeys were used at each test dose. The monkeys ranged in age from 2-4 years old at beginning of the study and having a weight of at least 2.5 kg. The dose volume was 0.3 mL/kg. Individual dose volumes were calculated based on the animals' most recently recorded body weight.
Animals were not fasted prior to collection. Blood was be collected via the femoral vein (or another appropriate site). Blood samples were maintained at 5±3° C. (wet ice or equivalent) and centrifuged at 5±3° C. within 1 hour of the collection of each blood sample. The resultant plasma was transferred to a tube and then stored under conditions set to maintain −75±15° C. until analysis.
Pharmacokinetic mean concentration-time data was analyzed using non-compartmental methods (Phoenix® WinNonlin® Version 7.0 or higher) based on the route of administration. The following parameters were calculated whenever possible and as data allows: Cmax, Tmax, and AUC. Descriptive statistics were generated using Phoenix WinNonlin.

This note sets out measurements from patent publication US20260224716A1, “PTH ANALOGS FOR THE TREATMENT OF HYPOPARATHYROIDISM” (priority 2020, published 2026).

Take `CC[C@H](C)[C@H](NC(=O)[C@H](CCC(=O)O)NC(=O)[C@H](CO)NC(=O)[C@@H](NC(=O)[C@H](CO)NC(=O)CN(C)C(=O)[C@H](N)CCCCNC(=O)CC[C@H](NC(=O)COCCOCCNC(=O)COCCOCCNC(=O)CC[C@H](NC(=O)CCCCCCCCCCCCCCCCC(=O)O)C(=O)O)C(=O)O)C(C)C)C(=O)N[C@@H](CCC(N)=O)C(=O)N[C@@H](CC(C)C)C(=O)N[C@@H](CCSC)C(=O)N[C@@H](Cc1c[nH]cn1)C(=O)N[C@@H](CC(N)=O)C(=O)N[C@@H](CC(C)C)C(=O)NCC(=O)N[C@@H](CCCCN)C(=O)N[C@@H](Cc1c[nH]cn1)C(=O)N[C@@H](CC(C)C)C(=O)N[C@@H](CC(N)=O)C(=O)N[C@@H](CO)C(=O)N[C@@H](CCSC)C(=O)N[C@@H](CCC(=O)O)C(=O)N[C@@H](CCCNC(=N)N)C(=O)N[C@H](C(=O)N[C@@H](CCC(=O)O)C(=O)N[C@@H](Cc1c[nH]c2ccccc12)C(=O)N[C@@H](CC(C)C)C(=O)N[C@@H](CCCNC(=N)N)C(=O)N[C@@H](CCCCN)C(=O)N[C@@H](CCCCN)C(=O)N[C@@H](CC(C)C)C(=O)N[C@@H](CCC(N)=O)C(=O)N[C@@H](CC(=O)O)C(=O)N[C@H](C(=O)N[C@@H](Cc1c[nH]cn1)C(=O)N[C@@H](CCCCNC(=O)CC[C@H](NC(=O)COCCOCCNC(=O)COCCOCCNC(=O)CC[C@H](NC(=O)CCCCCCCCCCCCCCCCC(=O)O)C(=O)O)C(=O)O)C(=O)O)C(C)C)C(C)C` [SEQ ID NO: 87]: the “Serum Ca levels during the treatment period” value with serum calcium is recorded as “gradually increased”. Moreover, the “serum phosphate levels versus sham control” value in the series with serum phosphate (PTx rats, 10, 25, 40 nmol/kg daily SC, after seven days) is given as “comparable to sham control rats”. Moreover, the “starting serum phosphate concentration” value in the series with serum phosphate (treatment group 10 nmol/kg) turned out to be 11.412 mg/dL; in the series with serum phosphate (treatment group 25 nmol/kg), 10.673 mg/dL; with serum phosphate (treatment group 40 nmol/kg), 8.152 mg/dL. Also, the “starting serum phosphate, decreased level versus PTx vehicle” value in the series on serum phosphate (high-dose group 40 nmol/kg) was 28%; in the series on serum phosphate (mid-dose group 25 nmol/kg) it was 5.7%. The “starting serum phosphate, increase versus PTx vehicle” value in the series with serum phosphate (low-dose group 10 nmol/kg) was 1.0%. The “difference of prodrug to drug serum concentration” value in series [1] is approximately 4 fold.
